Columns and labels:
Beta-secretase 1 = Beta-secretase 1 (Homo sapiens, UniProt P56817); experiment: Binding affinity to human BACE1 catalytic domain using QSY7-APPswe-Eu as substrate preincubated for 30 mins followed by substrate addition measured after 1.5 hrs by HTRF assay
Beta-secretase 2 = target: T1, Beta-secretase 2 (Homo sapiens, UniProt Q9Y5Z0); experiment: Binding affinity to human autoBACE2 using QSY7-APPswe-Eu as substrate preincubated for 30 mins followed by substrate addition measured after 90 mins by HTRF assay
T1 sequence (Q9Y5Z0 whole entry): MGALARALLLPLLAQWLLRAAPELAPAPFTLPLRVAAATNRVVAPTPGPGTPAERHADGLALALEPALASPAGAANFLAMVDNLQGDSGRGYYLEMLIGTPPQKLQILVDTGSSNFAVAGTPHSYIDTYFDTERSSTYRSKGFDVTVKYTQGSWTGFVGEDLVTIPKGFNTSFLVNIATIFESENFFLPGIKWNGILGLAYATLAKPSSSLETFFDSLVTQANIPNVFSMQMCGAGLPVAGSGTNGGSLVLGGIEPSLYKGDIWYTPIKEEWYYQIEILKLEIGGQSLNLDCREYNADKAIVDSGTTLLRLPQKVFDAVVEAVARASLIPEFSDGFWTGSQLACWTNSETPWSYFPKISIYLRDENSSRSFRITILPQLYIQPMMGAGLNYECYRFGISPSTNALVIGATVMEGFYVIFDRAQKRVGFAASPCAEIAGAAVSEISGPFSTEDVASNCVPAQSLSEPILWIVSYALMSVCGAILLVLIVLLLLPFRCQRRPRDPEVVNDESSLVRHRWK

Sequence of Beta-secretase 1 (P56817 whole entry, the tested form may be a part): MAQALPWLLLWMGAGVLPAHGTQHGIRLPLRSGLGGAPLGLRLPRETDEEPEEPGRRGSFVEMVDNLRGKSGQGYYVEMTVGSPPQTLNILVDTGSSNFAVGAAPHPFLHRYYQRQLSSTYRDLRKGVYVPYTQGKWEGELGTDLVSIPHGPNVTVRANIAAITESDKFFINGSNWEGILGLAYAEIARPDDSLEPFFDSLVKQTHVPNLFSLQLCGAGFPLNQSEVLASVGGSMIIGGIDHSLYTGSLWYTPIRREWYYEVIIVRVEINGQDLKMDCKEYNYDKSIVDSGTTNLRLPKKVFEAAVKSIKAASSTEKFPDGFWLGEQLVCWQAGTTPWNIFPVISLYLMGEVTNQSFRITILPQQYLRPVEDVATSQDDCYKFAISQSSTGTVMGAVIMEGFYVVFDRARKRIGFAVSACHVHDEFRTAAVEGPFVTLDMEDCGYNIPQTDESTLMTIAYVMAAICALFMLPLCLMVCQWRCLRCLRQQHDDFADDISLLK

Row | SMILES | Ki (Beta-secretase 1) [µM] | Ki (Beta-secretase 2) [µM]
1 | COc1cnc2c(C(=O)Nc3ccc(F)c([C@]45CCC[C@H]4S(=O)(=O)N(C)C(=N)N5)c3)ccnc2c1 | 0.206 | 0.198
2 | CN1C(=N)N[C@@]2(c3cc(NC(=O)c4nccc5cc(Br)cnc45)ccc3F)CCC[C@H]2S1(=O)=O | 0.004 | 0.0005
3 | COc1cnc2c(C(=O)Nc3ccc(F)c([C@]45CCC[C@H]4S(=O)(=O)N(C)C(=N)N5)c3)nccc2c1 | 0.031 | 0.01
4 | COc1cnc2c(C(=O)Nc3ccc(F)c([C@]45CCC[C@H]4S(=O)(=O)N(C)C(=N)N5)c3)nccc2n1 | 0.036 | 0.009

— ChEMBL document CHEMBL4118088, “C5-C6 Carbocyclic-Fused Iminothiadiazine Dioxides as BACE Inhibitors, Their Compositions, and Their Use” (ACS Med Chem Lett, 2017)
